Laboratory results as given in patent US20160090351A1, “INHIBITORS OF DEUBIQUITINATING PROTEASES” (BRANDEIS UNIVERSITY, priority 2013, published 2016).

Legend:
Bcr-Abl kinase = experiment: Bcr-Abl levels in K562 cells by immunoblotting; type: cell-based, human; conditions: compound numbered as in FIG. 3
Method: K562 cells are from a myelogenous leukemia line that expresses Bcr-Abl kinase. A. K562 cells were treated with TU50 for 24 hours after which time the cells were treated with annexin V-FITC and propidium iodide. Cells were then analyzed by flow cytometry. Cells showing only annexin V-FITC were considered apoptotic whereas cells showing both annexin V-FITC and propidium iodide were considered necrotic. N=2. All points show a significant difference to the vehicle (DMSO) with p<0.05. […] All points show a significant difference to vehicle (DMSO) with p<0.02. C. Same as A, but the incubation period was 8 hours. N>2. All points show a significant difference to DMSO with p<0.02. D, K562 cells were treated with TU50 for 4 hours. Samples were analyzed by SDS-PAGE and immunoblotting with anti-Bcr-Abl antibody. E. Quantitation of blot in D. The signal for tubulin was used to normalize the Bcr-Abl signal. N=3.
(§1) FIG. 34 depicts data showing that diphenylcarbonates cause the accumulation of HMW-Ub and reduce the levels of Bcr-Abl in K562 cells. A. K562 cells were treated with diphenyl carbonates (50 μM) for 2 h and then assayed for the accumulation of K48-linked Ub. B. As in A, but Bcr-Abl was measured by immunoblotting with anti-Abl antibodies. C. K562 cells were treated with C17 (50 μM) in the presence and absence of bortezomib (6 μM) for 4 hours and Bcr-Abl was measured by immunblotting with anti-Abl antibodies. D. Quantitation of blot in C. Significance: DMSO relative to C17 and bortezomib p=0.002; DMSO relative to C17, p=0.03. E. K562 cells were treated with C15 for 4 hours then analyzed for SMAD4 monoubiquitination by western blot. F. Quantitation of blots in A. (N=3). See also FIG. 40.
FIG. 40 depicts data showing that diphenyl carbonates induce the degradation of Bcr-Abl kinase. A. K562 cells were treated with C17 for 24 h (1 dose) then analyzed for Bcr-Abl expression by western blot with anti-Abl antibody. B. Quantitation of blots in A normalized to actin. C. K562 cells were treated with C17 for 24 h then the amount of cells in G1 and apoptosis were recorded (N=3). D. K562 were treated with C15 for 4 h then analyzed for Bcr-Abl expression using western blot. E. Quantitation of Bcr-Abl from D normalized to tubulin (N=4). F. Same K562 lysates were separately analyzed for K63-linked ubiquitin. G. Quantitation of blots in F (N=4). Differences between all bars is significant p<0.01). H. K562 cells were treated with C15 for 24 h after which time cells were fixed in ethanol, treated with propodium iodide/RNAse then analyzed by FACS. Viability was calculated using forward and side scatter. I. Same experiment as H but red fluorescence was measured to determine DNA content
(§2) Transfected cells were harvested 1.5 days post transfection. […] Typically clarified lysate was analyzed.

USP7 = experiment: MDM2 and P53 levels in treated cells, Example 6; type: cell-based; conditions: compound numbered as in FIG. 3
Method: P53 is a tumor suppressor that is rapidly degraded in tumor cells due to ubiquitination by MDM2. In turn, MDM2 is degraded by the ubiquitin/proteasome system. USP7 removes ubiquitin from MDM2, stabilizing the protein, and thereby causing degradation of P53. […] This behavior is observed when cells are treated with 4 (as defined in FIG. 3). Doxorubicin (Doxo) serves as a positive control.

UCH-L5, UCH-L3, UCH-L1 = experiment: HA-Ub-VS activity profiling in cell lysates, UCH-Ls; type: biochemical, human; conditions: HEK293T or Cos-1 lysate, compounds numbered as in FIG. 3
Method: (§3) HA-ubiquitin vinylsulfone (HA-Ub-VS) irreversibly labels DUBs by modifying the catalytic cysteine residue Inhibition of the DUB prevents HA-Ub-VS labeling and the band is. […] The interaction with UCHL1/3 is reversible.
(§4) Lysate labeling assay on untransfected cells (1.5 mg/mL) was run with the stated concentration of inhibitor (or 1% DMSO control) for between 19-60 mins. After this time HA-Ub-VS (1.5-0.7 μM) was added and incubated for 19 mins. After this time reaction mixture (9 μL) was removed and quenched in 2× (final concentration) reducing loading buffer. For recovery experiments, a lysate of 6 mg/mL was treated with saturating compound C14 (250 μM) and incubated for 40 mins. Afterward, the lysate was diluted to 0.6 mg/mL (final concentration of inhibitor 25 μM) in lysis buffer (final volume 100 μL), then HA-Ub-VS was added. Aliquots (15 μL) were removed at the stated time (5-119 mins) and immediately quenched in 2× (final concentration) reducing loading buffer. For all HA-Ub-VS experiments samples in loading buffer were heated only to 37° C. prior to loading on a gel. This assay is highly susceptible to concentration of lysate and HA-Ub-VS. Cell experiments were carried out as above with some modifications. For Cos-1 and MCF-7 cells, after trypsinization, media with compound was added to give a final concentration of compound equal to that used in the assay. Cell pellets were lysed on an ice/salt bath with a temperature of −5° C. and lysate was centrifuged for only 5 mins.
(§5) HA-Ub-VS is an irreversible inhibitor of DUBs that is widely used in activity profiling. If the DUB inhibitors react to form a thiocarbonylated enzyme as proposed (FIG. 29B), then HA-Ub-VS labeling will be blocked. Treatment of HEK 293T lysates with HA-Ub-VS produced the characteristic pattern of protein bands at 250, 150-100, 45, 38 and 36 kDa, generally ascribed to USP9x (292 kDa), USP19 (146 kDa), USP7/8 (128 and 127 kDa, respectively), USP28/15 (122 and 112 kDa, respectively), UCH-L5 (38 kDa), UCH-L3 (26 kDa) and UCH-L1 (25 kDa) as depicted in FIG. 31.
(§6) The effect of diphenylcarbonates on HA-Ub-VS labeling was assessed to investigate the selectivity of DUB inhibition. Lysates were preincubated with diphenyl carbonates (75 μM), then treated with HA-Ub-VS (FIG. 31A). […] These C17 and C22-sensitive DUBs are most likely USP9x, USP19, USP7/8 and UCHL5, based on molecular weight (FIGS. 31B and 38). The identity of USP7 was confirmed by immunoblotting (FIG. 38F). […] Similar behavior was observed on Cos-1 cell lysates (FIG. 38B).

[1] = test system: G76V ubiquitin-GFP fusion protein; experiment: G76V ubiquitin-GFP fusion protein fluorescence, Example 5; type: cell-based; conditions: Example 5, FIG. 9 bottom panel
Method: (§7) Cells treated with 4 (100 μM; as defined in FIG. 3) show PARP cleavage that indicates caspases are active. The fluorescence of G76V ubiquitin-GFP fusion protein increases in the presence of inhibitor 4 (as defined in FIG. 3), as expected if degradation […] due to inhibition of DUBs. In contrast, GFP fluorescence […] when the proteasome is inhibited by bortezomib.

[2] = test system: caspases or the proteasome; experiment: effect on caspases or proteasome (PARP cleavage), Example 5; type: cell-based; conditions: 100 μM
Method: as §7

[3] = test system: USP9x, USP19, USP7/8, USP28/15; experiment: HA-Ub-VS activity profiling in cell lysates, USPs; type: biochemical, human; conditions: HEK293T or Cos-1 lysate, compounds numbered as in FIG. 3
Method: as §3, §4, §5, §6

SMAD4 = SMAD4 monoubiquitination in K562 cells by western blot; type: cell-based, human
Method: as §1, §2

MCF7 cells = experiment: accumulation of K48- and K63-linked ubiquitin in MCF7 cells; type: cell-based, human; conditions: 100 μM
Method: FIG. 41 depicts data showing that compound C17 and C15 increase P53 expression and upregulate K48-linked Ub in MCF7 cells. A. MCF7 cells were treated with C17 (50 μM) for 48 h, dosed every 24 h and samples were analyzed for K48-linked ubiquitin. Note that samples were not sonicated, so only soluble HMW-Ub is recovered. B. A similar experiment to A but samples were analyzed for p53. C. Quantitation of blots in B. Each point has a P<0.001 for an increase relative to the DMSO vehicle (N=2). D. MCF7 cells were treated with C15 (100 μM) dosing every 2 h. The accumulation of K48-linked ubiquitin was assayed by SDS-PAGE and by western blot. E. MCF7 cells were treated as in D but the accumulation of K63-linked ubiquitin was assayed. F. Cos-1 cells were treated with C15 for 2 hours then analyzed for K48-linked ubiquitin by western blot. G. Similar experiment to F, but K63-linked ubiquitin was assayed. H. Quantitation of blots in G (N=3).
Similar results were obtained in Cos-1, CHO and HEK293T.
as §2

Cl.NCc1ccc(OC(=O)Oc2ccc(Br)cc2)cc1 [compound 4]
BCR/Abl level (Bcr-Abl kinase): decrease in BCR/Abl
MDM2 and P53 levels (USP7): degradation of MDM2 and the stabilization of P53
inhibition of UCHL1/3 (UCH-L5, UCH-L3, UCH-L1): At higher concentrations UCHL1/3 (37 kDa) are inhibited
GFP fluorescence of G76V ubiquitin-GFP [1]: increases
inhibition of caspases or the proteasome [2]: does not inhibit caspases or the proteasome
HA-Ub-VS binding to USP9x and USP7 [3]: prevents binding of HA-Ub-VS to USP9x (290 kDa) and USP7 (150 kDa) selectively
SMAD4 monoubiquitination (SMAD4): increase in SMAD4 monoubiquitination
K48- and K63-linked ubiquitin (MCF7 cells): elevated K48- and K63-linked ubiquitin
